# Measurements taken from PMC8245654, “Extended JAZ degron sequence for plant hormone binding in jasmonate co-receptor of tomato SlCOI1-SlJAZ” (Scientific Reports, 2021).
# Where two headings read alike, the source gives them in different places.
# Assays:
# SlCOI1-SlJAZ13 = target: T1, SlCOI1-SlJAZ13 (Solanum lycopersicum, UniProt A0A3Q7EQ67+Q6TDU2); assay: AlphaScreen assay, GST-SlCOI1 and Fl-SlJAZP13; assay type: binding; settings: calculated from AlphaScreen, 5 nM SlCOI1, 10 nM Fl-SlJAZP13
# T1 sequence (Q6TDU2 1-603): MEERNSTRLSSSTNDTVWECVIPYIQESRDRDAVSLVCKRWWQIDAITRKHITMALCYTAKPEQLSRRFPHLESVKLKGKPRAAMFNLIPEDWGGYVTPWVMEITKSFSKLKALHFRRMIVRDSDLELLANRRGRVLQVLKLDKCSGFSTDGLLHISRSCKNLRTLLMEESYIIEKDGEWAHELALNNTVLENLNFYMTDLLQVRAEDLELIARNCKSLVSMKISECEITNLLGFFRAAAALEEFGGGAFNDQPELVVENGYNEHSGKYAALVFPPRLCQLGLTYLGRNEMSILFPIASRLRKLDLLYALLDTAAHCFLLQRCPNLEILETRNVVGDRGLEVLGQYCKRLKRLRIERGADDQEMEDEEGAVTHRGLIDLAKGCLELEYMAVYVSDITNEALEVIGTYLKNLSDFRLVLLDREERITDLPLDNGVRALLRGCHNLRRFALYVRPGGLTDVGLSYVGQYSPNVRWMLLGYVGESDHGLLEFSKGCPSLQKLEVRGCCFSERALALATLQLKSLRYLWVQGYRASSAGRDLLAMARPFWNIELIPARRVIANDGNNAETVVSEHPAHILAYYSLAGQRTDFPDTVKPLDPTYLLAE
# T1 sequence (A0A3Q7EQ67 85-111): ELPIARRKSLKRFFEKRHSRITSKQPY
# T1 sequence (Q39255 1-160 partner): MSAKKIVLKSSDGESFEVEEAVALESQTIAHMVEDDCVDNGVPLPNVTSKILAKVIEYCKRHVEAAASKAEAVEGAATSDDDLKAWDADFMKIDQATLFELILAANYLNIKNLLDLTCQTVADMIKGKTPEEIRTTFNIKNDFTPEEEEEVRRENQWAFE
# Experimental: (§1) AlphaScreen experiments were performed at 25 °C in the incubation buffer. 15 μL of the reaction mixture containing the incubation buffer, 5 nM SlCOI1, 10 nM Fl-SlJAZPs and various concentrations of COR or JA-Ile was added to a 1/2 Area AlphaPlate-96 (PerkinElmer), and then incubated for 1 h at 4 °C. Then, 10 μL of a detection mixture containing incubation buffer, 0.1 μL of FITC-coated donor beads, 0.1 μL of GST-coated acceptor beads was added to each well. Finally, the mixture was incubated for 12 h and the luminescence signals were detected using the Envision 2105 Multimode Plate Reader (PerkinElmer). The experiment was repeated three times, and the data are presented as average values with standard deviation. To clarify the difference in the affinity of the ligands with each COI1/JAZ co-receptor, the results of the AlphaScreen assay are shown with the normalized signal intensity change (Figs. 3, 4, and Supplementary Fig. S9) along with the raw signal intensity (Supplementary Figs. S8, S10, and S13)[40].
# SlCOI1-SlJAZ5 = target: T2, SlCOI1-SlJAZ5 (Solanum lycopersicum, UniProt A0A3Q7FUH8+Q6TDU2); assay: AlphaScreen assay, GST-SlCOI1 and Fl-SlJAZP5; assay type: binding; settings: calculated from AlphaScreen, 5 nM SlCOI1, 10 nM Fl-SlJAZP5
# T2 sequence (Q6TDU2 1-603): T1 sequence (Q6TDU2 1-603)
# T2 sequence (A0A3Q7FUH8 327-353): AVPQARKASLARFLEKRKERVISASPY
# T2 sequence (Q39255 1-160 partner): T1 sequence (Q39255 1-160 partner)
# Experimental: as §1
# SlCOI1-SlJAZ9 = assay: AlphaScreen assay, GST-SlCOI1 and Fl-SlJAZP9; assay type: binding, Solanum lycopersicum; settings: calculated from AlphaScreen; 5 nM SlCOI1, 10 nM Fl-SlJAZP9
# Experimental: as §1
# SlCOI1-SlJAZ6 = assay: AlphaScreen assay, GST-SlCOI1 and Fl-SlJAZP6; assay type: binding, Solanum lycopersicum; settings: calculated from AlphaScreen; 5 nM SlCOI1, 10 nM Fl-SlJAZP6
# Experimental: as §1
# SlCOI1-SlJAZ7 = target: T3, SlCOI1-SlJAZ7 (Solanum lycopersicum, UniProt Q6TDU2+Q9M723); assay: AlphaScreen assay, GST-SlCOI1 and Fl-SlJAZP7; assay type: binding
# T3 sequence (Q6TDU2 1-603): T1 sequence (Q6TDU2 1-603)
# T3 sequence (Q9M723 174-200): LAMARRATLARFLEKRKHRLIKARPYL
# T3 sequence (Q39255 1-160 partner): T1 sequence (Q39255 1-160 partner)
# Experimental: as §1
# SlCOI1-SlJAZ8 = assay: AlphaScreen assay, GST-SlCOI1 and Fl-SlJAZP8; assay type: binding, Solanum lycopersicum; settings: calculated from AlphaScreen; 5 nM SlCOI1, 10 nM Fl-SlJAZP8
# Experimental: as §1
# SlCOI1-SlJAZ10 = assay: AlphaScreen assay, GST-SlCOI1 and Fl-SlJAZP10; assay type: binding, Solanum lycopersicum; settings: calculated from AlphaScreen; 5 nM SlCOI1, 10 nM Fl-SlJAZP10
# Experimental: as §1
# SlCOI1-SlJAZ1 = target: T4, SlCOI1-SlJAZ1 (Solanum lycopersicum, UniProt A0A3Q7H988+Q6TDU2); assay: AlphaScreen assay, GST-SlCOI1 and Fl-SlJAZP1; assay type: binding; settings: calculated from AlphaScreen, 5 nM SlCOI1, 10 nM Fl-SlJAZP1
# T4 sequence (Q6TDU2 1-603): T1 sequence (Q6TDU2 1-603)
# T4 sequence (A0A3Q7H988 159-185): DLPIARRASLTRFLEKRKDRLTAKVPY
# T4 sequence (Q39255 1-160 partner): T1 sequence (Q39255 1-160 partner)
# Experimental: as §1
# [1] = tested on: GST-SlCOI1 with FLAG-SlJAZ9-11; assay: Pull down assay of GST-SlCOI1 with FLAG-SlJAZ (full-length proteins); assay type: binding, Solanum lycopersicum; settings: ligand 100 nM; full-length FLAG-SlJAZ9-11; immunoblotting
# Excerpt: (§2) SlJAZ genes were cloned from the tomato cultivar Micro-Tom and their FLAG-tag-fused proteins FLAG-SlJAZ1-11/13 expressed using the wheat germ-derived cell-free protein expression system (Supplementary Fig. S1). GST-fused SlCOI1 (GST-SlCOI1) was also expressed in Sf9 cultured insect cells (Supplementary Fig. S2). Arabidopsis ASK protein was co-expressed to improve the stability of SlCOI1[26].
# (§3) Figure 2 (a) Pull down assay of GST-SlCOI1 with FLAG-SlJAZ (full-length proteins) in the presence of JA-Ile (100 nM). GST-SlCOI1 bound to FLAG-SlJAZ proteins was pulled down with anti-FLAG antibody and Protein G magnetic beads, and analyzed by immunoblotting (top: anti-GST-HRP conjugate for detection of GST-SlCOI1, bottom: anti-FLAG antibody and anti mouse-IgG HRP conjugate for detection of FLAG-SlJAZs). *or **show the bands derived from heavy chain or light chain of the anti-FLAG antibody. (b) Pull down assay of GST-SlCOI1 with Fl-SlJAZPs in the presence of JA-Ile (100 nM). GST-SlCOI1 bound to Fl-SlJAZPs was pulled down with anti-fluorescein antibody and Protein G magnetic beads, and analyzed by immunoblotting (anti-GST-HRP conjugate for detection of GST-SlCOI1).
# (§4) All chemicals (JA-Ile or COR) were dissolved in ethanol to generate 10 mM stock solutions and diluted with 20% ethanol aq. for preparation of 100 μM stock solutions. For the pull-down experiments using full-length SlJAZ proteins, purified GST-COI1 (5 nM), FLAG-tagged SlJAZ (each 20 µL of the translation mixture), and the ligands (COR or JA-Ile) in 350 µL of incubation buffer (50 mM Tris–HCl buffer, pH 7.8, 100 mM NaCl, 20 mM 2-mercaptoethanol, 10% glycerol, 0.1% Tween20, 100 nM inositol-1,2,4,5,6-pentakisphosphate (IP5)) were combined with anti-FLAG antibody (0.2 µL, Sigma Aldrich, F1804, clone M2), and incubated for 10–15 h at 4 °C with rotation. After incubation, the samples were combined with SureBeads Protein G (10 µL in 50% incubation buffer slurry, Bio-Rad). After 3 h incubation at 4 °C with rotation, the samples were washed three times with 350 µL of fresh incubation buffer. The washed beads were resuspended in 35 µL of SDS-PAGE loading buffer containing dithiothreitol (DTT, 100 mM). After heating for 10 min at 60 °C, the samples were subjected to SDS-PAGE and analyzed by western blotting. The bound GST-COI1 protein was detected using anti-GST HRP conjugate (RPN1236, GE Healthcare, 5000-fold dilution in blocking buffer (Nakalai tesque, Inc., Japan). FLAG-JAZ proteins were detected using anti-FLAG antibody (1000-fold dilution in blocking buffer) and anti-mouse IgG-HRP antibody (Southern Biotech. Inc., Birmingham, US, 1031-05, 20,000-fold dilution in blocking buffer). Three independent replicates using proteins purified at different times were done with similar results (Supplementary Fig. S3).
# [2] = tested on: GST-SlCOI1 with FLAG-SlJAZ4/13; assay: as above; assay type: binding, Solanum lycopersicum; settings: ligand 100 nM; full-length FLAG-SlJAZ4/13; immunoblotting
# Excerpt: as §2, §3, §4
# [3] = tested on: GST-SlCOI1 with FLAG-SlJAZ1-3/5–8; assay: as above; assay type: binding, Solanum lycopersicum; settings: ligand 100 nM; full-length FLAG-SlJAZ1-3/5–8; immunoblotting
# Excerpt: as §2, §3, §4
# SlCOI1-SlJAZ11 = assay: AlphaScreen assay, GST-SlCOI1 and Fl-SlJAZP11; assay type: binding, Solanum lycopersicum; settings: calculated from AlphaScreen; 5 nM SlCOI1, 10 nM Fl-SlJAZP11
# Experimental: as §1
# [4] = target: GST-SlCOI1 and SlJAZP1-4DOD; assay: AlphaScreen assay, GST-SlCOI1 and swapped SlJAZP1-4DOD; assay type: binding, Solanum lycopersicum; settings: swapped peptide: DOD sequence of SlJAZP1 swapped with that of SlJAZP4
# Excerpt: To examine the effect of the DOD sequence, we studied SlJAZP1-4/13 which incorporate the same JAZ degron sequence LPIARR and alternative DOD sequence XSLX. […] We prepared SlJAZP1-3DOD and SlJAZP1-4DOD, wherein the DOD sequence of SlJAZP1 was swapped with those of SlJAZP3 and SlJAZP4, respectively (Fig. 4a, and Supplementary Figs. S11–12). […] Next, we examined whether the DOD sequence also affected the affinity of SlJAZP5/6/8 with another JAZ degron sequence VPQARK. […] We prepared DOD swapped peptides SlJAZP5-2DOD (ASLA of SlJAZ5 to NSLT of SlJAZ2) and SlJAZP2-5DOD (NSLT of SlJAZ2 to ASLA of SlJAZ5) (Fig. 4a, and Supplementary Figs. S11–12).
# as §1, with “To clarify the difference in the affinity of the ligands with each COI1/JAZ co-receptor, the results of the AlphaScreen assay are shown with the normalized signal intensity change (Figs. 3, 4, and Supplementary Fig. S9) along with the raw signal intensity (Supplementary Figs. S8, S10, and S13)[40].” left out
structure (smiles),measurement,setting,value
"CC[C@H]1C=C(C(=O)N[C@@]2(C(=O)O)C[C@@H]2CC)[C@H]2CCC(=O)[C@H]2C1 [COR, coronatine]",Kd,SlCOI1-SlJAZ13,80.7 nM
same,Kd,SlCOI1-SlJAZ5,0.64 nM
same,Kd,SlCOI1-SlJAZ9,44.7 nM
same,Kd,SlCOI1-SlJAZ6,0.76 nM
same,Kd,SlCOI1-SlJAZ7,0.23 nM
same,Kd,SlCOI1-SlJAZ8,0.39 nM
same,Kd,SlCOI1-SlJAZ10,89.7 nM
same,Kd,SlCOI1-SlJAZ1,4.9 nM
same,pull-down of GST-SlCOI1,[1],Identical results
same,pull-down of GST-SlCOI1,[2],Identical results
same,pull-down of GST-SlCOI1,[3],Identical results
same,Kd,SlCOI1-SlJAZ11,62.4 nM
"CC/C=C\C[C@@H]1C(=O)CC[C@@H]1CC(=O)N[C@H](C(=O)O)[C@@H](C)CC [JA-Ile, (+)-7-iso-Jasmonoyl-L-isoleucine]",Kd,SlCOI1-SlJAZ13; read-out: Kd,637 nM
same,Kd,SlCOI1-SlJAZ5; read-out: Kd,4.2 nM
same,Kd,SlCOI1-SlJAZ9,1110 nM
same,Kd,SlCOI1-SlJAZ6,4.1 nM
same,Kd,[4],46.9 nM
same,Kd,"SlCOI1-SlJAZ7; calculated from AlphaScreen, 5 nM SlCOI1, 10 nM Fl-SlJAZP7, read-out: Kd",16.2 nM
same,Kd,SlCOI1-SlJAZ8,2.2 nM
same,Kd,SlCOI1-SlJAZ10,402 nM
same,Kd,SlCOI1-SlJAZ1; read-out: Kd,9.2 nM
same,pull-down of GST-SlCOI1,[1],not FLAG-SlJAZ9-11 pulled-down GST-SlCOI1
same,pull-down of GST-SlCOI1,[2],could not pull-down the GST-SlCOI1
same,pull-down of GST-SlCOI1,[3],pulled-down GST-SlCOI1
same,Kd,SlCOI1-SlJAZ11,430 nM
